# Patent US20220047556A1 (INSERM (Institut National de la Santé et de la Recherche …, priority 2018, published 2022)
# Tests used:
# Format in all cases: cell-based, human
# NF-κB phosphorylation = test: phospho-NFκBp65 Western blot and densitometry in T cells after PMA/Io stimulation; conditions: Sulconazole 2 μM, FIG. 1M
# [1] = test system: PD-1 expression in T cells; test: PD-1 protein expression in PMA/Io-activated T cells, flow cytometry; conditions: T cells incubated 24 h, FIGS. 1I and 1J
# Description: (§1) Activation of TCR signaling was performed either with phorbol myristate acetate (PMA) and Ionomycin (Io) or with plate-bound anti-CD3.
# Flow cytometry analyzed were performed on Single cell suspension of hPBMCs and T cells using BD Accuri C6 software, or Diva (BD Biosciences) and FlowJo 9.3.2 (TreeStar) softwares (flow cytometry facility of TBM Core).
# [2] = test system: PD-1 expression in T cells; test: PD-1 mRNA levels in PMA/Io-activated T cells, real-time qPCR; conditions: T cells incubated 24 h, FIG. 1H
# Excerpt: (H) PD-1 mRNA levels following PMA/Io stimulation of T cells, as assessed by Real-time qPCR. Data are represented as fold change to PMA/Io-activated cells assigned 1. […] Data represented as mean±SEM from 3 (H, J) and 2 (0) independent experiments.
# Human colon carcinoma cell lines HT29 (microsatellite-instable (MSI)) and HCT116 (microsatellite-stable (MSS)) cells, BALB/c syngeneic colon carcinoma CT26 cell line, and human T cell lines Jurkat, J.RT3-T3.5 (JRT3), Myla, SeAx and HUT-78, were cultured in DMEM or RPMI 1640 complete media.
# as §1
# [3] = test system: JRT3 cells (TCR-activation marker CD69); test: JRT3 functional assay: CD69 in JRT3 cells co-cultured with EPCR-expressing HT29 cells; conditions: 24 h, compared to JRT3 cells cultured alone, FIGS. 1N and 1O
# Description: The Jurkat T cell line J.RT3-T3.5 (JRT3) stably expressing the human LES-γδ TCR (JRT3-LES) was incubated with the colon cancer cell line HT29 overexpressing the endothelial protein C receptor (HT29-EPCR) (34). The activation of JRT3-LES cells was evaluated by the expression of CD69.
# PD-1 positive T cells = test: Immunofluorescence quantification of PD-1 positive T cells; conditions: activated T cells treated 24 h, FIGS. 1K and 1L
compound,measurement,setting,value
"Clc1ccc(CSC(Cn2ccnc2)c2ccc(Cl)cc2Cl)cc1 (centres unmarked) [Sulconazole, 1-[2-[(4-chlorophenyl)methylsulfanyl]-2-(2,4-dichlorophenyl)ethyl]imidazole]",NF-κB phosphorylation after PMA/Io stimulation,NF-κB phosphorylation,inhibited
same,PD-1 expression at the protein level,[1],repressed PD-1 expression
same,PD-1 expression at the RNA level,[2],repressed PD-1 expression
same,CD69 expression and number of CD69 positive cells,[3],increased in the absence or presence of Sulconazole
same,reduction of PD-1+ cells,PD-1 positive T cells,50%
